Assays:
[1] = tested on: Rattus norvegicus; assay: Compound was tested for diarrheagenic activity in rats after intracolonic administration (I.C); format: functional
[2] = tested on: Rattus norvegicus; assay: Compound was tested for diarrheagenic activity in rats after intragastric administration (I.G); format: functional
[3] = tested on: Rattus norvegicus; assay: Compound was tested for diarrheagenic activity in rats after intrajejuna administration (I.J); format: functional
[4] = species: Rattus norvegicus; assay: Compound was tested for mucosal protective activity against indomethacin-induced gastric damage in rats; format: functional, Stomach
[5] = species: Rattus norvegicus; assay: Compound was tested for mucosal protective activity against indomethacin-induced intestinal damage in rats; format: functional
[6] = species: Rattus norvegicus; assay: Compound was tested for mucosal protective activity in rats using 4 hr EtOH model; format: functional

Compound: CCCCC(C)(O)C/C=C/[C@H]1[C@H](O)CC(=O)[C@@H]1CCCCCCC(=O)OC (stereo partly specified) [MISOPROSTOL]
- ED50 [1]: 97 (ug of misoprostol) kg-1
- ED50 [2]: 265 (ug of misoprostol) kg-1
- ED50 [3]: 534 (ug of misoprostol) kg-1
- ED50 [4]: 14 (ug of misoprostol) kg-1
- ED50 [5]: 294 (ug of misoprostol) kg-1
- ED50 [6]: 525 (ug of misoprostol) kg-1

Source: ChEMBL document CHEMBL1126983, “Catalytic functionalization of polymers: a novel approach to site specific delivery of misoprostol to the stomach” (1993)
